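Assay format: 96-well plates, 48-hour exposure. Here, GI50 denotes the concentration required for 50% inhibition of growth.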 Active and inactive are the calls of the source. Cut-off read from the data, not from the text of the source: active = GI50 up to about 1.1 µM and inactive = higher. Non-standard residues stand in square brackets, D forms with d. Residues, ends and D or L forms follow the SMILES beside them. *: point of attachment. NMeF = CN[CH](Cc1ccccc1)C(=O)O; NMeV = CN[CH](C(=O)O)C(C)C; Boc = CC(C)(C)OC(=O)*
Legend:
Test in all cases: inhibition of tumour cell growth, NCI panel, 48 h
786-0 = test system: 786-0
ACHN = test system: ACHN
TK-10 = test system: TK-10
NCI-H522 = test system: NCI-H522
SF-295 = test system: SF-295
Malme-3M = test system: Malme-3M
HCT-15 = test system: HCT-15
IGROV-1 = test system: IGROV-1
SK-OV-3 = test system: SK-OV-3
DMS-273 = test system: DMS-273
NCI-H23 = test system: NCI-H23
HL-60 = test system: HL-60
OVCAR-4 = test system: OVCAR-4
LXFL 529 = test system: LXFL 529
K562 = test system: K562
HOP-62 = test system: HOP-62

`O=C(O)C(CS)NCc1c2ccccc2nc2ccccc12` (configuration not stated) was tested, and the GI50 (786-0) was 55.2 µM (inactive), the GI50 (ACHN) was 42.3 µM (inactive) and the GI50 (TK-10) was 78.2 µM (inactive). The GI50 (NCI-H522) was 25 µM (inactive), the GI50 (SF-295) was 43.2 µM (inactive) and the GI50 (Malme-3M) was 38.2 µM (inactive). For the same compound, the GI50 (HCT-15) was 31.6 µM, the GI50 (IGROV-1) was 27 µM (inactive) and the GI50 (SK-OV-3) was > 100 µM (inactive). For the same compound, the GI50 (DMS-273) was 27 µM (inactive), the GI50 (NCI-H23) was 37.8 µM (inactive) and the GI50 (HL-60) was 22.3 µM (inactive). For the same compound, the GI50 (OVCAR-4) was 12.9 µM (inactive), the GI50 (LXFL 529) was 39.7 µM (inactive) and the GI50 (K562) was 26.1 µM (inactive).
`COC(=O)c1ccccc1NC(=O)C(=O)Cc1nc2c3c(ccc2nc1O)C(=O)c1ccccc1C3=O` was tested, and the GI50 (786-0) was 16.2 µM (inactive), the GI50 (ACHN) was 25 µM (inactive) and the GI50 (TK-10) was 23.8 µM (inactive). For the same compound, the GI50 (NCI-H522) was 9.14 µM (inactive), the GI50 (HOP-62) was 13.9 µM (inactive) and the GI50 (Malme-3M) was 8.26 µM (inactive). The GI50 (HCT-15) was 21.9 µM, the GI50 (IGROV-1) was 15.7 µM (inactive) and the GI50 (SK-OV-3) was 10.1 µM (inactive). For the same compound, the GI50 (DMS-273) was 11.8 µM (inactive), the GI50 (NCI-H23) was 11.5 µM (inactive) and the GI50 (OVCAR-4) was 9.06 µM (inactive). The GI50 (LXFL 529) was 22.6 µM (inactive) and the GI50 (K562) was 23.9 µM (inactive).
In the case of `O=C1c2ccccc2C(=O)c2[nH]c(Cc3ccccc3F)nc21`, the GI50 (786-0) is reported as 38.5 µM (inactive), the GI50 (ACHN) is reported as 53.5 µM (inactive) and the GI50 (TK-10) is reported as 29.3 µM (inactive). For the same compound, the GI50 (NCI-H522) was 21.3 µM (inactive), the GI50 (SF-295) was 59.2 µM (inactive) and the GI50 (HOP-62) was 86.7 µM (inactive). For the same compound, the GI50 (Malme-3M) was 40.7 µM (inactive), the GI50 (HCT-15) was 45.2 µM and the GI50 (DMS-273) was 34.6 µM (inactive). The GI50 (NCI-H23) was 27.7 µM (inactive), the GI50 (HL-60) was 35.6 µM (inactive) and the GI50 (OVCAR-4) was 28.1 µM (inactive). For the same compound, the GI50 (LXFL 529) was 31.9 µM (inactive) and the GI50 (K562) was > 100 µM (inactive).
With `Cc1ccc(-c2nc3ccccc3c(=O)n2NC2OC(CO)C(O)C(O)C2O)cc1` (configuration not stated) the GI50 (786-0) was > 100 µM (inactive), the GI50 (ACHN) was > 100 µM (inactive) and the GI50 (TK-10) was > 100 µM (inactive). For the same compound, the GI50 (NCI-H522) was > 100 µM (inactive), the GI50 (SF-295) was > 100 µM (inactive) and the GI50 (HOP-62) was > 100 µM (inactive). For the same compound, the GI50 (Malme-3M) was 48.2 µM (inactive), the GI50 (HCT-15) was greater than 100 µM and the GI50 (IGROV-1) was > 100 µM (inactive). The GI50 (SK-OV-3) was > 100 µM (inactive), the GI50 (DMS-273) was > 100 µM (inactive) and the GI50 (NCI-H23) was > 100 µM (inactive). For the same compound, the GI50 (HL-60) was > 100 µM (inactive), the GI50 (OVCAR-4) was > 100 µM (inactive) and the GI50 (LXFL 529) was > 100 µM (inactive). For the same compound, the GI50 (K562) was > 100 µM (inactive).
With `COC(=O)C1CCc2c(OC)ccc(OC)c2C1=O` (configuration not stated) the GI50 (786-0) was > 100 µM (inactive), the GI50 (ACHN) was > 100 µM (inactive) and the GI50 (TK-10) was > 100 µM (inactive). The GI50 (NCI-H522) was > 100 µM (inactive), the GI50 (SF-295) was > 100 µM (inactive) and the GI50 (HOP-62) was > 100 µM (inactive). The GI50 (Malme-3M) was > 100 µM (inactive), the GI50 (IGROV-1) was > 100 µM (inactive) and the GI50 (SK-OV-3) was > 100 µM (inactive). The GI50 (DMS-273) was > 100 µM (inactive), the GI50 (NCI-H23) was > 100 µM (inactive) and the GI50 (HL-60) was > 100 µM (inactive). For the same compound, the GI50 (OVCAR-4) was > 100 µM (inactive), the GI50 (LXFL 529) was > 100 µM (inactive) and the GI50 (K562) was > 100 µM (inactive).
`[N-]=[N+]=Nc1c(Br)c(=O)[nH]c(=O)n1COCCO` was tested, and the GI50 (786-0) was > 100 µM (inactive), the GI50 (ACHN) was > 100 µM (inactive) and the GI50 (TK-10) was > 100 µM (inactive). For the same compound, the GI50 (NCI-H522) was 32.2 µM (inactive), the GI50 (SF-295) was > 100 µM (inactive) and the GI50 (HOP-62) was > 100 µM (inactive). For the same compound, the GI50 (Malme-3M) was > 100 µM (inactive), the GI50 (IGROV-1) was > 100 µM (inactive) and the GI50 (DMS-273) was > 100 µM (inactive). For the same compound, the GI50 (NCI-H23) was > 100 µM (inactive), the GI50 (HL-60) was > 100 µM (inactive) and the GI50 (OVCAR-4) was > 100 µM (inactive). The GI50 (LXFL 529) was > 100 µM (inactive) and the GI50 (K562) was > 100 µM (inactive).
`NC(CCC(=O)NC(CSSCCCCS(=O)O)C(=O)NCC(=O)O)C(=O)O` (configuration not stated) was tested, and the GI50 (786-0) was > 100 µM (inactive), the GI50 (ACHN) was > 100 µM (inactive) and the GI50 (TK-10) was > 100 µM (inactive). For the same compound, the GI50 (NCI-H522) was > 100 µM (inactive), the GI50 (SF-295) was > 100 µM (inactive) and the GI50 (HOP-62) was > 100 µM (inactive). The GI50 (Malme-3M) was > 100 µM (inactive), the GI50 (HCT-15) was greater than 100 µM and the GI50 (IGROV-1) was > 100 µM (inactive). For the same compound, the GI50 (SK-OV-3) was > 100 µM (inactive), the GI50 (DMS-273) was > 100 µM (inactive) and the GI50 (NCI-H23) was > 100 µM (inactive). The GI50 (OVCAR-4) was > 100 µM (inactive), the GI50 (LXFL 529) was > 100 µM (inactive) and the GI50 (K562) was > 100 µM (inactive).
In the case of `CC1=NN(C(=O)c2ccc(Cl)cc2)C(=O)/C1=C/c1ccccc1O`, the GI50 (786-0) is reported as > 100 µM (inactive), the GI50 (ACHN) is reported as > 100 µM (inactive) and the GI50 (TK-10) is reported as > 100 µM (inactive). The GI50 (NCI-H522) was > 100 µM (inactive), the GI50 (SF-295) was > 100 µM (inactive) and the GI50 (HOP-62) was > 100 µM (inactive). For the same compound, the GI50 (Malme-3M) was > 100 µM (inactive), the GI50 (HCT-15) was greater than 100 µM and the GI50 (IGROV-1) was > 100 µM (inactive). The GI50 (SK-OV-3) was > 100 µM (inactive), the GI50 (NCI-H23) was > 100 µM (inactive) and the GI50 (HL-60) was > 100 µM (inactive). For the same compound, the GI50 (OVCAR-4) was > 100 µM (inactive), the GI50 (LXFL 529) was > 100 µM (inactive) and the GI50 (K562) was > 100 µM (inactive).
With `CC(C)C(NC(=O)OC(C)(C)C)C(=O)N(C)C(Cc1ccccc1)C(=O)N(C)C(C(=O)N(C)C(C(=O)O)C(C)C)C(C)C` (configuration not stated) (Boc-V[NMeF][NMeV][NMeV]-OH; configuration not given here) the GI50 (786-0) was > 100 µM (inactive), the GI50 (ACHN) was > 100 µM (inactive) and the GI50 (TK-10) was > 100 µM (inactive). For the same compound, the GI50 (NCI-H522) was > 100 µM (inactive), the GI50 (SF-295) was > 100 µM (inactive) and the GI50 (HOP-62) was > 100 µM (inactive). For the same compound, the GI50 (Malme-3M) was > 100 µM (inactive), the GI50 (HCT-15) was greater than 100 µM and the GI50 (IGROV-1) was > 100 µM (inactive). The GI50 (DMS-273) was > 100 µM (inactive), the GI50 (NCI-H23) was > 100 µM (inactive) and the GI50 (HL-60) was > 100 µM (inactive). The GI50 (LXFL 529) was > 100 µM (inactive) and the GI50 (K562) was > 100 µM (inactive).

From ChEMBL document CHEMBL1201862, “PubChem BioAssay data set” (2004)
